From patent US11187660B2, “Fluorescent probes for monitoring voltage by photo-induced electron transfer” (The Regents of the University of California, priority 2011, dated 2021)
“Also recorded” adds a separate entry of the source.

Key:
HEK cells = experiment: Bleach rate in HEK cells; format: cell-based, human; conditions: for bleach rate: HEK cells, 7 W/cm^2; for bleach rate, fold smaller than di-4-ANEPPS: identical illumination conditions
Method: The dibutyl (VFx.4.Cl) dyes stain the cell membranes of HEK293 cells when loaded at a concentration of 2 μM for 15 min at 37° C. in buffer with 0.1% DMSO as cosolvent (FIG. 9A, and FIG. 10). […] The bleach rates of the probes were tested in HEK cells and compared with di-4-ANEPPS. The bleach rates for VF1.4.Cl, VF2.4.Cl, and VF2.1.Cl at 7 W/cm^2 were measured to be 3.9±0.1×10^−2 s^−1, 1.8±0.1×10^−2 s^−1, and 8.0±0.1×10^−3 s^−1, respectively.
For studies to determine excitation sensitivity of dyes, illumination was provided by a Polychrom IV light source (T.I.L.L. Photonics GMBH) with a mechanical shutter (Uniblitz VS25). For all other studies, light was provided by an Xenon arc lamp powered by an Optiquip Power supply (Optiquip) with a mechanical shutter controlled by a Lambda 10-2 controller (Sutter). Light from the Xenon arc lamp was filtered through a 480 nm filter (30 nm bandpass, Chroma), a 510 nm dichroic (Semrock), a 530 nm emission filter (50 nm bandpass, Semrock), and focused through a 40×/1.4 oil objective. For di-4-ANEPPS imaging, a 625 nm emission filter with a 50 nm bandpass was used. Bleaching studies used identical illumination conditions (480/30 nm excitation, 510 nm dichroic, 7 W/cm^2 output) and were corrected by normalizing for the extinction coefficient at the excitation wavelengths (465-495 nm).

leech Retzius cells = experiment: Capacitative loading in leech Retzius cells; format: cell-based, Hirudo medicinalis; conditions: hyperpolarizing current injection, dye at three times the working concentration
Excerpt: We injected hyperpolarizing current into the Retzius cells of leech ganglia preparations and compared the time constants for these voltage steps in ganglia under different dye loading conditions. The ganglia were stained with dye at three times the working concentration [either VF2.1.Cl or diSBA-C4-(3) (14)] and compared with unloaded cells.
Isolated midbody ganglia (Ganglia 8-16) were dissected from Hirudo medicinalis and the ventral side was desheathed using standard procedures. The voltage sensitive dye was combined with HEPES saline down to the desired concentration (100-300 nM), and 1.5 μL of a 20% (w/v) solution of Pluronic F-127 in DMSO. The dye was then continuously pumped over the ganglion to help with penetration into the cell membranes for 20-30 minutes. […]
Electrophysiological measurements were made with paired electrode recordings with resistances in the range of 20-40 MΩm. Electrode 1 acted as the recording electrode, which constantly monitored membrane potential, and electrode 2 acted as the current injecting electrode. […] The capacitance C was calculated with the formula C=tau*I/ΔV, where I=1 nA and the hyperpolarization ΔV was 15-18 mV. Tau was measured two ways: 1) the time required for the normalized curve to reach (1-1/e); 2) the time constant of the best fit exponential or sum of exponentials. […] Spontaneous Retzius cell activity was measured with a single electrode.

leech Retzius cell = experiment: Optical recording of spontaneous activity in leech ganglia; format: cell-based, Hirudo medicinalis; conditions: sampling at 50 Hz, stained 15 min
Method: A more stringent test of the usefulness of the PeT-based VSD is to determine whether it can accurately measure subthreshold activity in heterogeneous preparations. For this test we used leech ganglia, because their neurons have been well studied using both electrophysiological and other VSD recordings (14, 33-35). We isolated a midbody ganglion and stained it with VF2.1.Cl for 15 min at 22° C. (FIG. 13C). Insertion of a sharp electrode (25 MΩ) into a Retzius cell to enabled recording of its spontaneous activity while simultaneously recording the fluorescence signals from the same cell. […] The optically recorded spikes are truncated as a result of undersampling the optical signal; sampling at a higher rate (722 Hz) fully resolved the action potentials, but introduced a significant amount of sampling noise (FIG. 14). Although the action potential was subsampled at just 50 Hz, there is still a reliable transient in the optical trace that indicates the time when an action potential occurs, which is often what is needed.
Isolated midbody ganglia (Ganglia 8-16) were dissected from Hirudo medicinalis and the ventral side was desheathed using standard procedures. […]
Imaging was done with a Cascade 128+ EMCCD camera (Photometrics). […] The fluorescence illumination was from an LED that has its peak excitation wave-length in the excitation range for FITC. […] The data is stored in Matlab-readable files.

capacitative load on the membrane (leech Retzius cells) | SMILES | bleach rate (HEK cells) | bleach rate, fold smaller than di-4-ANEPPS (HEK cells) | optical recording versus electrical recording of spontaneous activity (leech Retzius cell)
no difference from control cells | CN(C)c1ccc(/C=C/c2ccc(/C=C/c3ccc(-c4c5cc(Cl)c(=O)cc-5oc5cc(O)c(Cl)cc45)c(S(=O)(=O)O)c3)cc2)cc1 [VF2.1.Cl, 5-(4-(4-(dimethyllamino)styryl)styryl)-2-(2,7-dichloro-6-hydroxy-3-oxo-3H-xanthen-9-yl)benzenesulfonic acid] | 8.0±0.1×10^−3 s^−1 | ninefold smaller | near-perfect matching of the subthreshold membrane potential; also recorded: faithfully followed the subthreshold fluctuations
 | CCCCN(CCCC)c1ccc(/C=C/c2ccc(/C=C/c3ccc(-c4c5cc(Cl)c(=O)cc-5oc5cc(O)c(Cl)cc45)c(S(=O)(=O)O)c3)cc2)cc1 [VF2.4.Cl, 5-(4-(4-(dibutylamino)styryl)styryl)-2-(2,7-dichloro-6-hydroxy-3-oxo-3H-xanthen-9-yl)benzenesulfonic acid] | 1.8±0.1×10^−2 s^−1 | four- | 
